Results taken from ChEMBL document CHEMBL1153195 (Bioorg Med Chem Lett, 2010).

Experiments:
Substance-P receptor = Substance-P receptor (Homo sapiens, UniProt P25103); test: Displacement of [3H]substance P from human NK1 receptor expressed in CHO cells; assay type: cell-based
[1] = Cmax in rat at 1 mg/kg, po; assay type: ADME, organism-based; design: dose 1 mg/kg, route oral; conditions: in vivo
[2] = AUC (0 to 8 hrs) in rat at 1 mg/kg, po; assay type: ADME, organism-based; design: time < 8 hr, dose 1 mg/kg, route oral; conditions: plasma
Gerbillinae = test: Anxiolytic-like activity in po or sc dosed gerbils assessed as inhibition of GR-73632-induced foot tapping administered 1 hr before GR-73632 challenge measured; assay type: functional; conditions: for ED50: read-out: ID50 (the source's name)
[3] = Ratio of drug level in brain to plasma in rat at 1 mg/kg, po after 5 mins; assay type: ADME, organism-based; design: dose 1 mg/kg, route oral

Substance-P receptor, sequence (P25103 whole entry): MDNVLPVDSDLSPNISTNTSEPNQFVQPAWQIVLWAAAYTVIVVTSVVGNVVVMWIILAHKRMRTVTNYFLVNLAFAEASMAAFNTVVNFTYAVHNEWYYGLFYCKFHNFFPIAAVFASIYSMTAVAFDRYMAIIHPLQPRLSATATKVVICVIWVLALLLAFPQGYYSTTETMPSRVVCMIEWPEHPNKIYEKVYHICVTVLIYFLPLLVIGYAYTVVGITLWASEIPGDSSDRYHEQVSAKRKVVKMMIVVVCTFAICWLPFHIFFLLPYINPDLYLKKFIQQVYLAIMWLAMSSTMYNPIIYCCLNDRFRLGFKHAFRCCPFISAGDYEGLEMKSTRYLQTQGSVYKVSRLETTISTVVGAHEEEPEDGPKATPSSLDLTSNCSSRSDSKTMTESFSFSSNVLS

Structure (SMILES)	Ki (Substance-P receptor) [nM]	also measured
Cc1cc(F)ccc1[C@H]1CNCCN1C(=O)N(C)C1(c2cc(C(F)(F)F)cc(C(F)(F)F)c2)CC1	0.501	Cmax [1]: 29 ng/mL; AUC(0-t) at 8 h [2]: 108 ng·h/mL; Activity (Gerbillinae): Dose-dependent effect; ED50 (Gerbillinae): 0.2 mg/kg
Cc1cc(F)ccc1[C@H]1CNCCN1C(=O)N1CCCC1c1cc(C(F)(F)F)cc(C(F)(F)F)c1 (stereo in doubt; 2a)	63.1	
Cc1cc(F)ccc1[C@H]1CNCCN1C(=O)N1CCCC1c1cc(C(F)(F)F)cc(C(F)(F)F)c1 (stereo in doubt; 2b)	6.31	
Cc1cc(F)ccc1[C@H]1CNCCN1C(=O)N1CCC=CC1c1cc(C(F)(F)F)cc(C(F)(F)F)c1 (stereo in doubt; 3a)	20	
Cc1cc(F)ccc1[C@H]1CNCCN1C(=O)N1CCC=CC1c1cc(C(F)(F)F)cc(C(F)(F)F)c1 (stereo in doubt; 3b)	0.501	
Cc1cc(F)ccc1[C@H]1CNCCN1C(=O)N1CCNCC1c1cc(C(F)(F)F)cc(C(F)(F)F)c1 (stereo in doubt; 5b) [listing 2 of 2 here]		Activity (Gerbillinae): Dose-dependent effect
Cc1cc(F)ccc1[C@H]1CNCCN1C(=O)N(C)[C@H](C)c1cc(C(F)(F)F)cc(C(F)(F)F)c1 [VESTIPITANT]		ED50 (Gerbillinae): 0.014 mg/kg

Further compounds by falling Ki (Substance-P receptor), results first:

Ki (Substance-P receptor) [nM]	Structure (SMILES)	also measured
100	Cc1cc(F)ccc1[C@H]1CNCCN1C(=O)N1CCNCC1c1cc(C(F)(F)F)cc(C(F)(F)F)c1 (stereo in doubt; 5a)	
50.1	Cc1cc(F)ccc1C1CNCC2CN(Cc3cc(C(F)(F)F)cc(C(F)(F)F)c3)C(=O)N21 (stereo not given)	
31.6	Cc1cc(F)ccc1[C@H]1CNCCN1C(=O)N1CCCCC1c1cc(C(F)(F)F)cc(C(F)(F)F)c1 (stereo in doubt; 4a)	
1.26	Cc1cc(F)ccc1[C@H]1CNCCN1C(=O)N1CCCCC1c1cc(C(F)(F)F)cc(C(F)(F)F)c1 (stereo in doubt; 4b)	
0.794	Cc1cc(F)ccc1[C@H]1CNCCN1C(=O)N1CCNCC1c1cc(C(F)(F)F)cc(C(F)(F)F)c1 (stereo in doubt; 5b) [listing 1 of 2 here]	Cmax [1]: 32 ng/mL; AUC(0-t) at 8 h [2]: 145 ng·h/mL; ED50 (Gerbillinae): 0.4 mg/kg; Kp at 5 min [3]: 0.9
